We go through 9 molecules from patent publication US20260232682A1, “GSPT1 DEGRADER COMPOUNDS” (Captor Therapeutics S.A., priority 2023, published 2026).

Test [1] deals with CRBN/DDB1 protein complex (Homo sapiens, UniProt Q96SW2). As to the kind of experiment: CRBN displacement TR-FRET assay. As to conditions: Thalidomide-Red tracer, 6×His-CRBN/DDB1; read-out: CRBN binding Ki. The gist of the method:
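Test compound at various concentrations competed with 6.8 nM Thalidomide-Red tracer for 5 nM 6×His-CRBN/DDB1, detected with 0.5 nM anti-His-Eu cryptate in buffer with 1 mM DTT and 1% DMSO. Incubation ran 180 min at room temperature with a time-resolved fluorescence read-out. IC50 values were converted to Ki by Cheng–Prusoff using tracer Kd and protein and tracer concentrations.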
On the technique in general: In TR-FRET formats the signal depends on donor and acceptor labels being close together.

The target in test [2] is [GSPT1]-[compound of formula (I)]-[CRBN/DDB1] complex (Homo sapiens, UniProt P15170+Q96SW2). In words: AlphaLISA ternary complex formation assay (GSPT1). It counts as binding. As to conditions: 0.5 h; 1 μM compound; normalized to reference compound CC-885; read-out: Normalized AlphaLISA ternary complex average signal at 1 μM molecule. The gist of the method:
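Biotinylated GSPT1 on streptavidin donor beads and 6×His-CRBN/DDB1 on anti-His acceptor beads (each 200 nM before mixing) in HBS pH 7.4 with 0.1% Tween-20 and 1 mM DTT, 2% DMSO final, 30 min at 25 °C. AlphaLISA luminescence is normalized between DMSO background and the reference compound's maximum.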

For test [3], the target named is T1, GSPT1-HiBiT protein in GSPT1-HiBiT HEK293 cells (Homo sapiens, UniProt P15170+Q96SW2).
T1 construct: endogenous in cells; host or cells: HEK293 (CRISPR/Cas9 knock-in of HiBiT at the GSPT1 locus)
As to the kind of experiment: GSPT1 degradation assay using HiBiT system (Nano-Glo HiBiT lytic assay). It counts as cell-based. As to conditions: 6 hours treatment; for DC50: read-out: HiBiT lytic assay Geomean absolute DC50. The gist of the method:
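CRISPR-engineered HEK293 cells expressing endogenous C-terminally HiBiT-tagged GSPT1, seeded at 2×10^3/well overnight, then treated 6 h at 37 °C with 12-point titrations (10 μM to 0.03 nM, 0.25% DMSO). Remaining GSPT1 measured by Nano-Glo HiBiT lytic luminescence. DC50 and Dmax from non-linear regression of DMSO-normalized RLU.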

[GSPT1]-[compound of formula (I)]-[CRBN/DDB1] complex, sequence (P15170 whole entry): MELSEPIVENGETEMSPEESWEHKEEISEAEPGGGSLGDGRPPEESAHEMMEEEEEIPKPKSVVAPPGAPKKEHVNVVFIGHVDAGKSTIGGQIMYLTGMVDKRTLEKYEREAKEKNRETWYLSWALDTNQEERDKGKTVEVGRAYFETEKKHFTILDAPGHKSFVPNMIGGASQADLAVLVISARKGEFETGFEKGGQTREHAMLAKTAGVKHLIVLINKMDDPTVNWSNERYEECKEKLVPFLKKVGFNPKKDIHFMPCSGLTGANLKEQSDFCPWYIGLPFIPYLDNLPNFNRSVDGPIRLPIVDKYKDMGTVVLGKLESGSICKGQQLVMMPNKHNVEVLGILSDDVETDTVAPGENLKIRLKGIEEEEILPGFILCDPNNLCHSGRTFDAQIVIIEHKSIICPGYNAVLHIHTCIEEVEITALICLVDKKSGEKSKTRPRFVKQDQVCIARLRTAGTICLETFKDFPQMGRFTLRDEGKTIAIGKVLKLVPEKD
[GSPT1]-[compound of formula (I)]-[CRBN/DDB1] complex, sequence (Q96SW2 whole entry): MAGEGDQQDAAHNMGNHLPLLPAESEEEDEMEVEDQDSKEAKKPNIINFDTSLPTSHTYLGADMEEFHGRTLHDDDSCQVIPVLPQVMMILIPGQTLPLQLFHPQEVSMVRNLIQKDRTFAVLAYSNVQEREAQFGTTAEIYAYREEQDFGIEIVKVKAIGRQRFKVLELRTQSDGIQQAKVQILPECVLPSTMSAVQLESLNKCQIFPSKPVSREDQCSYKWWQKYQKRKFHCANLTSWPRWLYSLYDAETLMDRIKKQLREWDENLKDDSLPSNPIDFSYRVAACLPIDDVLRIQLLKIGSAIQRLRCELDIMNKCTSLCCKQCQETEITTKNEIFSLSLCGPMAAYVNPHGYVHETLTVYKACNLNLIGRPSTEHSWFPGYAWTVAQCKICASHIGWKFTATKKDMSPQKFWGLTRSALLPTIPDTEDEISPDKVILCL
[GSPT1]-[compound of formula (I)]-[CRBN/DDB1] complex, sequence (Q16531 whole entry partner): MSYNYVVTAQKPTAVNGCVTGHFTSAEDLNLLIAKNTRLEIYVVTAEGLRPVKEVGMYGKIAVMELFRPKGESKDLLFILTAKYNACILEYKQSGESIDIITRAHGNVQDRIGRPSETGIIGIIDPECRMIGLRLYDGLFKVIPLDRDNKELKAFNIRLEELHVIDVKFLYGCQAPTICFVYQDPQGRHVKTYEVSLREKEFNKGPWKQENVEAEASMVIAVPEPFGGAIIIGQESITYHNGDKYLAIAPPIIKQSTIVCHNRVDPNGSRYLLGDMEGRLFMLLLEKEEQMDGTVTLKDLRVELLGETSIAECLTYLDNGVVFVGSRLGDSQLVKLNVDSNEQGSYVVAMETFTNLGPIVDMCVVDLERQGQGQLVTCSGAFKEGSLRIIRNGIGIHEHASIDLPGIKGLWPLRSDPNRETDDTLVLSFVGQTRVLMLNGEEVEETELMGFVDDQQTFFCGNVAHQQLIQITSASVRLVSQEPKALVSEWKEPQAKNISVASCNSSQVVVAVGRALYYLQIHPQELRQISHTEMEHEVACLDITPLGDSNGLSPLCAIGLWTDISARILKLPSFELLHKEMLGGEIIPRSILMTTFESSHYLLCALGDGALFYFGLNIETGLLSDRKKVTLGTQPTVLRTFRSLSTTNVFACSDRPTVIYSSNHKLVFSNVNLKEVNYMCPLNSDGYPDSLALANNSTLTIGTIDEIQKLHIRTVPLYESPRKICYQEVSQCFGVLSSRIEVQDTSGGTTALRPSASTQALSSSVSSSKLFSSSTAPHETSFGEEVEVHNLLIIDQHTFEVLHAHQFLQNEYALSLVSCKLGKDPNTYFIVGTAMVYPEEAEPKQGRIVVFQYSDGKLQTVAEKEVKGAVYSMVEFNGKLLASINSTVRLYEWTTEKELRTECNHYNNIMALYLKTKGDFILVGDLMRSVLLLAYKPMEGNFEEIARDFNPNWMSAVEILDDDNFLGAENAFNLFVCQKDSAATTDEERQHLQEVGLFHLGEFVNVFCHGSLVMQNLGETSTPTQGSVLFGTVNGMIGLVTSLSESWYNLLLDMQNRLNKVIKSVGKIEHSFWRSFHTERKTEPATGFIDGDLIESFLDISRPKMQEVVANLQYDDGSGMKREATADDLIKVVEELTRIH
T1 sequence (P15170 whole entry): as the sequence (P15170 whole entry) above
T1 sequence (Q96SW2 whole entry): as the sequence (Q96SW2 whole entry) above
T1 sequence (Q16531 whole entry partner): as the sequence (Q16531 whole entry partner) above
CRBN/DDB1 protein complex, sequence (Q96SW2 whole entry, species assumed): as the sequence (Q96SW2 whole entry) above
CRBN/DDB1 protein complex, sequence (Q16531 whole entry partner, species assumed): as the sequence (Q16531 whole entry partner) above

For the molecule `Cc1nc2cc(COC(=O)Nc3cc(C(C)(C)C)n[nH]3)ccc2cc1C1CCC(=O)NC1=O` (stereo not drawn) [Compound 75, (3-(2,6-dioxopiperidin-3-yl)-2-methylquinolin-7-yl)methyl (3-(tert-butyl)-1H-pyrazol-5-yl)carbamate], the Ki (as a rule, the dissociation constant of the complex between target and ligand, obtained from inhibition or displacement) in test [1] is over 1 µM. Further, the activation at 1 µM in test [2] is over 50%. In test [3], the Dmax (commonly the greatest extent of degradation seen) was at least 75% and the DC50 (commonly the midpoint of the concentration-degradation curve) fell in the range of 0.01 to 0.05 µM.

Take `Cc1ccc(NC(=O)OCc2ccc3cc(C4CCC(=O)NC4=O)c(C)nc3c2)c(Cl)c1Cl` (stereo not drawn) [Compound 54, (3-(2,6-dioxopiperidin-3-yl)-2-methylquinolin-7-yl)methyl (2,3-dichloro-4-methylphenyl)carbamate]: the Ki in test [1] was in the range of 0.5 to 1 µM. Besides, in test [2], the activation at 1 µM was over 50%. Moreover, in test [3], the Dmax is at least 75% and the DC50 was 0.01 to 0.05 µM.

Consider `Cc1ncc(NC(=O)OCc2ccc3cc(C4CCC(=O)NC4=O)c(C)nc3c2)cc1Cl` (stereo not drawn) [Compound 58, (3-(2,6-dioxopiperidin-3-yl)-2-methylquinolin-7-yl)methyl (5-chloro-6-methylpyridin-3-yl)carbamate], for which the Ki in test [1] is 0.5 to 1 µM. Besides, in test [2], the activation at 1 µM is over 50%. Also, in test [3], the Dmax was at least 75% and the 50% degradation concentration (DC50) is under 0.01 µM.

On to `Cc1ccc(NC(=O)OCc2ccc3cc([C@H]4CCC(=O)NC4=O)c(C)nc3c2)cc1Cl` [Compound 39, (3-(2,6-dioxopiperidin-3-yl)-2-methylquinolin-7-yl)methyl (3-chloro-4-methylphenyl)carbamate], for which, in test [1], the Ki fell in the range of 0.5 to 1 µM. For the same molecule, the activation at 1 µM in test [2] was over 50%. Moreover, in test [3], the Dmax was at least 75% and the half-maximal degradation concentration (DC50) is under 0.01 µM.

Take `Cc1nc2cc(COC(=O)Nc3ccc(-c4ccccc4)nc3)ccc2cc1C1CCC(=O)NC1=O` (stereo not drawn) [Compound 20, (3-(2,6-dioxopiperidin-3-yl)-2-methylquinolin-7-yl)methyl (6-phenylpyridin-3-yl)carbamate]: the Ki in test [1] was under 0.5 µM. Besides, the activation at 1 µM in test [2] is 10 to 50%. Also, in test [3], the Dmax was at least 75% and the DC50 was under 0.01 µM.

As for `Cc1nc2cc(COC(=O)Nc3cc(C(C)(C)C)no3)ccc2cc1C1CCC(=O)NC1=O` (stereo not drawn) [Compound 30, (3-(2,6-dioxopiperidin-3-yl)-2-methylquinolin-7-yl)methyl (3-(tert-butyl)isoxazol-5-yl)carbamate], in test [1], the Ki lay within 0.5 to 1 µM. Moreover, in test [2], the activation at 1 µM is over 50%. Further, in test [3], the Dmax is at least 75% and the DC50 was under 0.01 µM.

Take `Cc1ccc(NC(=O)OCc2ccc3c(C)c(C4CCC(=O)NC4=O)c(C)nc3c2)cc1Cl` (stereo not drawn) [Compound 44, (3-(2,6-dioxopiperidin-3-yl)-2,4-dimethylquinolin-7-yl)methyl (3-chloro-4-methylphenyl)carbamate]: the Ki in test [1] is under 0.5 µM. Besides, the activation at 1 µM in test [2] was in the range of 10 to 50%. Moreover, in test [3], the Dmax was at least 75% and the DC50 is under 0.01 µM.

Take `Cc1ccc(NC(=O)OCc2ccc3cc(C4(F)CCC(=O)NC4=O)c(C)nc3c2)cc1Cl` (stereo not drawn) [Compound 74, (3-(3-fluoro-2,6-dioxopiperidin-3-yl)-2-methylquinolin-7-yl)methyl (3-chloro-4-methylphenyl)carbamate]: the Ki in test [1] was over 1 µM. The activation at 1 µM in test [2] lay within 10 to 50%. Also, in test [3], the Dmax is at least 75% and the DC50 is over 0.1 µM.

For `COc1cc(C)c(Cl)cc1NC(=O)OCc1ccc2cc(C3CCC(=O)NC3=O)c(C)nc2c1` (stereo not drawn) [Compound 21, (3-(2,6-dioxopiperidin-3-yl)-2-methylquinolin-7-yl)methyl (5-chloro-2-methoxy-4-methylphenyl)carbamate], in test [1], the Ki fell in the range of 0.5 to 1 µM. Also, the activation at 1 µM in test [2] is over 50%. In test [3], the Dmax is at least 75% and the half-maximal degradation concentration (DC50) was in the range of 0.01 to 0.05 µM.
